Test system: adjuvant-associated biological themes in LV, SP, LN
Outline: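 Enrichment score S sums −log(p) over consensus themes whose names contain a pre-selected adjuvant-associated term such as "stress" or "cytokine". Consensus requires a theme in all three mice of a group, p<0.05. Themes come from TargetMine analysis of genes with eij/ei(c)>2.0, Fisher's exact test, Holm-Bonferroni-corrected.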

Cc1ccc2c(=O)c3cccc(CC(=O)O)c3oc2c1C [DMXAA, 5,6-dimethylxanthenone-4-acetic acid]
10.7: GO annotation: TNF signaling pathway (Term: TNF signaling pathway) (LV, ID)
5.66: IFN beta: positive regulation of interferon-beta production (LV, ID)
5.98: GO annotation: immune response-activating signal transduction (Term: immune response) (LV, ID)
7.86: GO annotation: positive regulation of cytokine production (Term: cytokine) (LV, ID)
23.6: GO annotation: defense response to other organism (Term: defense response) (LV, ID)
6.04: GO annotation: cell death (Term: cell death) (LV, ID)
0: GO annotation: Cytokine-cytokine receptor interaction (Term: cytokine) (LV, ID) | GO annotation: I-kappaB kinase/NF-kappaB signaling (Term: NF-kappa B signaling pathway) (LV, ID) | GO annotation: acute inflammatory response (Term: inflammatory response) (LV, ID) | GO annotation: adaptive immune response (Term: adaptive immune response) (LV, ID) | GO annotation: apoptotic process (Term: apoptosis) (LV, ID) | GO annotation: apoptotic signaling pathway (Term: apoptosis) (LV, ID) | GO annotation: cell chemotaxis (Term: chemotaxis) (LV, ID) | GO annotation: cell migration (Term: migration) (LV, ID) | GO annotation: cellular response to stress (Term: stress) (LV, ID) | GO annotation: chemokine production (Term: chemokine) (LV, ID) | GO annotation: chemokine-mediated signaling pathway (Term: chemokine) (LV, ID) | GO annotation: chemotaxis (Term: chemotaxis) (LV, ID) | GO annotation: cytokine biosynthetic process (Term: cytokine) (LV, ID) | GO annotation: cytokine metabolic process (Term: cytokine) (LV, ID) | GO annotation: cytokine secretion (Term: cytokine) (LV, ID) | GO annotation: cytokine-mediated signaling pathway (Term: cytokine) (LV, ID) | GO annotation: death (Term: cell death) (LV, ID) | GO annotation: defense response to Gram-positive bacterium (Term: defense response) (LV, ID) | GO annotation: defense response to bacterium (Term: defense response) (LV, ID) | GO annotation: granulocyte chemotaxis (Term: chemotaxis) (LV, ID) | GO annotation: granulocyte migration (Term: migration) (LV, ID) | GO annotation: inflammatory response (Term: inflammatory response) (LV, ID) | GO annotation: intrinsic apoptotic signaling pathway (Term: apoptosis) (LV, ID) | GO annotation: leukocyte chemotaxis (Term: chemotaxis) (LV, ID) | GO annotation: leukocyte migration (Term: migration) (LV, ID) | GO annotation: leukocyte migration involved in inflammatory response (Term: inflammatory response) (LV, ID) | GO annotation: lymphocyte chemotaxis (Term: chemotaxis) (LV, ID) | GO annotation: lymphocyte migration (Term: migration) (LV, ID) | GO annotation: myeloid leukocyte migration (Term: migration) (LV, ID) | GO annotation: negative regulation of apoptotic process (Term: apoptosis) (LV, ID) | GO annotation: negative regulation of cell death (Term: cell death) (LV, ID) | GO annotation: negative regulation of cytokine production (Term: cytokine) (LV, ID) | GO annotation: negative regulation of defense response (Term: defense response) (LV, ID) | GO annotation: negative regulation of immune response (Term: immune response) (LV, ID) | GO annotation: negative regulation of innate immune response (Term: innate immune response) (LV, ID) | GO annotation: negative regulation of programmed cell death (Term: cell death) (LV, ID) | GO annotation: neutrophil chemotaxis (Term: chemotaxis) (LV, ID) | GO annotation: neutrophil migration (Term: migration) (LV, ID) | GO annotation: positive regulation of I-kappaB kinase/NF-kappaB signaling (Term: NF-kappa B signaling pathway) (LV, ID) | GO annotation: positive regulation of adaptive immune response (Term: adaptive immune response) (LV, ID) | GO annotation: positive regulation of apoptotic process (Term: apoptosis) (LV, ID) | GO annotation: positive regulation of cell death (Term: cell death) (LV, ID) | GO annotation: positive regulation of cell migration (Term: migration) (LV, ID) | GO annotation: positive regulation of chemokine production (Term: chemokine) (LV, ID) | GO annotation: positive regulation of chemotaxis (Term: chemotaxis) (LV, ID) | GO annotation: positive regulation of cytokine biosynthetic process (Term: cytokine) (LV, ID) | GO annotation: positive regulation of inflammatory response (Term: inflammatory response) (LV, ID) | GO annotation: positive regulation of leukocyte chemotaxis (Term: chemotaxis) (LV, ID) | GO annotation: positive regulation of leukocyte migration (Term: migration) (LV, ID) | GO annotation: positive regulation of programmed cell death (Term: cell death) (LV, ID) | GO annotation: positive regulation of response to wounding (Term: wounding) (LV, ID) | GO annotation: positive regulation of tumor necrosis factor superfamily cytokine (Term: cytokine) (LV, ID) | GO annotation: production of molecular mediator of immune response (Term: immune response) (LV, ID) | GO annotation: programmed cell death (Term: cell death) (LV, ID) | GO annotation: regulation of I-kappaB kinase/NF-kappaB signaling (Term: NF-kappa B signaling pathway) (LV, ID) | GO annotation: regulation of adaptive immune response (Term: adaptive immune response) (LV, ID) | GO annotation: regulation of apoptotic process (Term: apoptosis) (LV, ID) | GO annotation: regulation of apoptotic signaling pathway (Term: apoptosis) (LV, ID) | GO annotation: regulation of cell death (Term: cell death) (LV, ID) | GO annotation: regulation of cell migration (Term: migration) (LV, ID) | GO annotation: regulation of chemokine production (Term: chemokine) (LV, ID) | GO annotation: regulation of chemotaxis (Term: chemotaxis) (LV, ID) | GO annotation: regulation of cytokine biosynthetic process (Term: cytokine) (LV, ID) | GO annotation: regulation of defense response to virus (Term: defense response) (LV, ID) | GO annotation: regulation of defense response to virus by host (Term: defense response) (LV, ID) | GO annotation: regulation of inflammatory response (Term: inflammatory response) (LV, ID) | GO annotation: regulation of intrinsic apoptotic signaling pathway (Term: apoptosis) (LV, ID) | GO annotation: regulation of leukocyte chemotaxis (Term: chemotaxis) (LV, ID) | GO annotation: regulation of leukocyte migration (Term: migration) (LV, ID) | GO annotation: regulation of programmed cell death (Term: cell death) (LV, ID) | GO annotation: regulation of tumor necrosis factor superfamily cytokine production (Term: cytokine) (LV, ID) | GO annotation: response to wounding (Term: wounding) (LV, ID) | GO annotation: taxis (Term: chemotaxis) (LV, ID) | GO annotation: tumor necrosis factor superfamily cytokine production (Term: cytokine) (LV, ID) | IFN beta: interferon-beta production (LV, ID) | IFN gamma: interferon-gamma production (LV, ID) | IFN gamma: regulation of interferon-gamma production (LV, ID) | interleukin-6: interleukin-6 production (LV, ID) | interleukin-6: positive regulation of interleukin-6 production (LV, ID) | interleukin-6: regulation of interleukin-6 production (LV, ID) | interleukin-12: interleukin-12 production (LV, ID) | interleukin-12: positive regulation of interleukin-12 production (LV, ID) | interleukin-12: regulation of interleukin-12 production (LV, ID) | GO annotation: adaptive immune response based on somatic recombination of immune receptors built from immunoglobulin superfamily domains (Term: adaptive immune response) (mouse, in vivo) | GO annotation: regulation of adaptive immune response based on somatic recombination of immune receptors built from immunoglobulin superfamily domains (Term: adaptive immune response) (mouse, in vivo)
3.49: GO annotation: regulation of response to wounding (Term: wounding) (LV, ID)
26.8: GO annotation: regulation of defense response (Term: defense response) (LV, ID)
48.4: GO annotation: defense response (Term: defense response) (LV, ID)
10.2: GO annotation: positive regulation of immune response (Term: immune response) (LV, ID)
5.67: GO annotation: activation of immune response (Term: immune response) (LV, ID)
17.9: IFN beta: response to interferon-beta (LV, ID)
15.4: GO annotation: Cytokine-cytokine receptor interaction|Endocytosis (Term: cytokine) (LV, ID)
7.3: GO annotation: regulation of interferon-alpha production (Term: IFN alpha) (LV, ID)
7.99: GO annotation: innate immune response-activating signal transduction (Term: innate immune response) (LV, ID)
12.4: GO annotation: positive regulation of innate immune response (Term: innate immune response) (LV, ID) | GO annotation: regulation of immune response (Term: immune response) (LV, ID)
10.3: IFN gamma: response to interferon-gamma (LV, ID)
16.7: GO annotation: cellular response to cytokine stimulus (Term: cytokine) (LV, ID) | IFN beta: cellular response to interferon-beta (LV, ID)
11.3: GO annotation: response to interferon-alpha (Term: IFN alpha) (LV, ID)
19.8: GO annotation: regulation of innate immune response (Term: innate immune response) (LV, ID)
8.39: GO annotation: immune response-regulating signaling pathway (Term: immune response) (LV, ID)
26.5: GO annotation: response to cytokine (Term: cytokine) (LV, ID)
3.77: GO annotation: NF-kappa B signaling pathway (Term: NF-kappa B signaling pathway) (LV, ID)
21: GO annotation: regulation of response to stress (Term: stress) (LV, ID)
15: GO annotation: defense response to virus (Term: defense response) (LV, ID)
40.4: GO annotation: response to stress (Term: stress) (LV, ID)
25.5: GO annotation: immune response (Term: immune response) (LV, ID)
9.24: GO annotation: activation of innate immune response (Term: innate immune response) (LV, ID)
7.37: IFN gamma: cellular response to interferon-gamma (LV, ID)
9.3: GO annotation: cellular response to interferon-alpha (Term: IFN alpha) (LV, ID)
6.98: GO annotation: cytokine production (Term: cytokine) (LV, ID)
3.52: GO annotation: defense response to protozoan (Term: defense response) (LV, ID)
6.81: GO annotation: interferon-alpha production (Term: IFN alpha) (LV, ID)
7.85: GO annotation: positive regulation of interferon-alpha production (Term: IFN alpha) (LV, ID)
34.9: GO annotation: innate immune response (Term: innate immune response) (LV, ID)
3.09: IFN beta: regulation of interferon-beta production (LV, ID)
8.37: GO annotation: regulation of cytokine production (Term: cytokine) (LV, ID)
19: GO annotation: positive regulation of defense response (Term: defense response) (LV, ID)
